Reference: patent US11773379B2, “Enzymes and reagents for measurement of short chain fatty acids” (SYSMEX CORPORATION, priority 2018, dated 2023)

B1: BKII: recombinant butyrate kinase derived from Acetoanaerobium sticklandii obtained in Reference Example 1 (T7 tag and His tag; SEQ ID NO: 17) (protein, listed as Acetoanaerobium sticklandii)
chain: MEGTMSTYKILAINPGSTSTKIAVYENETQIMEKTLRHSTEEINKYEKIFDQFEFRKNVIVDAVSEAGIAIEELDAVVGRGGLLKPIKGGTYEVSDELIAGLKEPYLGEHASNLGGIIAKEIADAALAPSFIVDPVVVDEMNDVARISGMPEIPRFSIFHALNQKATARRFASEIGKSYEDINVIVAHMGGGVSVGAHEKGRVIDVNNALDGEGPFSPERAGGLPVGDLAKLCFSGKYTHAQIKKLLKGEGGIVAYLGTNDARDVEKMIAEGDEKAKLIYEAMAYQVAKEIGSCATVLKGKVDAIILTGGIAYSEMITTWIKERVSFIADVKIYAGEDEMSALAQGALRVLREEEKPQRYEA
modifications: T7 tag and His tag
B2: StBK: Symbiobacterium thermophilum-derived butyrate kinase prepared in Reference Example 6 (SEQ ID NO: 25, His tag) (protein, listed as Symbiobacterium thermophilum)
chain: MQQRLLIINPGSTSTKIAVYDDDSPLFAETLRHSAADLACFRDVAAQFPFRRDLILEALDAHGVSLSSLTAVVGRGGLLRPVRGGTYRVDAAMLAELSRAAHGEHASNLGALLAHEIAQAAGGVPAFIVDPVVVDELEPVARLTGLPEMPRRSVFHALNQKAVARRAAADLGRAYTEVNLVVVHLGGGISVGAHRRGRVVDVNNALDGEGPMAPERAGTVPSLGLVHLAFSWQHTLREVGRMLVGRGGLVAHVGTNDARRVEERIAAGDEAARVAYRAMAYQVAKEVGRAAVALGGQVDRIVLTGGLAHSEMLTGWIAEQVEWIAPVAVYPGEDEMAALAAGALRVLRGEEPAQVYGEAGE
modifications: His tag
B3: ToBK2: Thermosediminibacter oceani-derived butyrate kinase prepared in Reference Example 4 (SEQ ID NO: 21, His tag) (protein, listed as Thermosediminibacter oceani)
chain: MEKFRILAINPGSTSTKISIFHGEEEVFTENIVHDYEELKKFKNVIEQEGYRYEAILNALAARGYSLDEIDVVVARGGILRPVKAGTYRINDLMLEDLKDAVAGEHASNVAAFIAHRIGAEKGIPAYIVDPVSVDEMEDVARISGLDGIERKSLSHALNIRRVIYKVSEKFGKDPGELNFIVAHLGGGISIGAIRRGQMVDVESANCEGPFSPERSGGLPILELIDLCFSGRFTKDELKRRLIQEGGVYSYLGTKDIREVEERTRSGDKKAALILEAMVYQIAKCIGQMATVLKGDVDFIILTGGIAKSDYISECIADRVKFIAPVERVPGEEEMKALAEAACRVMTGREKVLDYGGGE
modifications: His tag
B4: NtBK: Natranaerobius thermophilus-derived butyrate kinase prepared in Reference Example 5 (SEQ ID NO: 23, His tag) (protein)
chain: MKQEHRLLVINPGSTSTKIAVYEGESPLIEKKLEHSPEELNKFQDIIDQYDFRKDSILNFLDEQGMNFNKLDAVVARGGLLKPISGGTFKVNDLMVEHLRQGYQGEHASNLGGIIAKEISNQLDIPAYIVDPVVVDELQDIARISGFEPIERKSIFHALNHKAVARKAAAQLGKKYEEANLVVVHLGGGISVGAHNCGDVIDVNNALDGEGPFSPERSGGLPNGDLVRYIDEHNLTWKELKRQLVGNGGLVSYLDTNDGKKVQEMIQSGDEKAEKVYEAMIYQIAKEIGSCAVVLKGELDAIVLTGGLAHDEYLVSRMKEYIKFLGEILVFPGEDEMQSLAEGGLRVLRNEETPKDYS
modifications: His tag; Natranaerobius thermophiles

Assays:
[1] = tested on: BKII (recombinant butyrate kinase derived from Acetoanaerobium sticklandii); assay: Substrate specificity of butyrate kinase BKII; assay type: biochemical; settings: 100 mM sodium salt of fatty acid in second reagent, pH 7.5
Method: (§1) Various fatty acids shown in Table 1 were used as a substrate. The measurement was performed using a 7180 type Hitachi automatic analyzer (Hitachi High-Tech Corporation). […] PHARMA CORPORATION) • 5 U/mL ADP-HK II (ADP dependent hexokinase: […] PHARMA CORPORATION) […] In the composition of the second reagent, “sodium salts of various fatty acids” means any one kind of sodium caprylate, sodium caproate, sodium valerate, sodium isovalerate, sodium butyrate, sodium isobutyrate, sodium propionate, sodium acetate, sodium lactate, and sodium succinate. Isobutyric acid, valeric acid, isovaleric acid, caproic acid, and octanoic acid, which are commercially available fatty acids and are not sold as sodium salts, were adjusted to pH 7.5 with sodium hydroxide. […] [Measurement Parameters of Automatic Analyzer] • Analysis method: […]

[2] = tested on: BKIII (recombinant butyrate kinase derived from Thermosediminibacter oceani); assay: Substrate specificity of butyrate kinase BKIII; assay type: biochemical; settings: 100 mM sodium salt of fatty acid in second reagent, pH 7.5
Method: as §1

[3] = Thermal stability of recombinant butyrate kinase (remaining activity); assay type: physicochemical; settings: for remaining activity: after incubating at 65° C. for 30 minutes, 50 mM potassium phosphate pH 7, 0.1% TN-100, about 1 mg/mL
Method: The thermal stability of BKII was examined based on the remaining activity after incubating approximately 0.3 mg/mL BKII at each temperature of 4 to 50° C. for 30 minutes in 10 mM Tris-HCl buffer (pH 7.5) containing 100 mM KCl. The thermal stability of BKIII was examined based on the remaining activity after incubating approximately 1 mg/mL BKIII in 50 mM potassium phosphate buffer (pH 7) containing 0.1% TN-100 (ADEKA Corporation) at each temperature of 4 to 80° C. for 30 minutes. The remaining activity was measured in the same manner as in Example 1. From FIGS. 12 and 13, the thermal stability (remaining activity) of BKII was 50% or more after treatment at 37° C. for 30 minutes, and the thermal stability (remaining activity) of BKIII was 85% or more after treatment at 70° C. for 30 minutes.
The thermal stability of BKIII, Thermosediminibacter oceani-derived butyrate kinase (ToBK2) prepared in Reference Example 4, Natranaerobius thermophilus-derived butyrate kinase (NtBK) prepared in Reference Example 5, and Symbiobacterium thermophilum-derived butyrate kinase (StBK) prepared in Reference Example 6 were compared. Specifically, each butyrate kinase was added to a 50 mM potassium phosphate buffer (pH 7) containing 0.1% TN-100 so that the concentration is about 1 mg/mL, and the remaining activity after incubating at 65° C. for 30 minutes was measured. The remaining activity was measured in the same manner as in Example 1.

[4] = Measurement of recombinant butyrate kinase activity (ADP-HK/G6PDH coupled, NADPH at 340 nm); specific activity, Km and Vmax; assay type: biochemical; settings: with respect to butyric acid
Method: The enzymatic activity of BKII and BKIII with respect to butyric acid was measured based on the amount of ADP produced. In the Example 1, ADP produced by the action of butyrate kinase is used to produce NADPH by the action of ADP dependent hexokinase and glucose-6-phosphate dehydrogenase (see FIG. 1), and the amount of ADP produced was measured based on the change in absorbance at 340 nm due to the increase in NADPH. The measurement was performed using a 7080 type Hitachi automatic analyzer (Hitachi High-Tech Corporation).
[Composition of First Reagent] • 50 mM Tris-HCl (pH 7.5) (Sigma-Aldrich Co. LLC.) • 2 mM ATP (pH 7.5) (Oriental Yeast Co., Ltd.) • 2 mM MgCl2 (FUJIFILM Wako Pure Chemical Corporation) • 20 mM glucose (FUJIFILM Wako Pure Chemical Corporation) • 100 mM sodium butyrate (FUJIFILM Wako Pure Chemical Corporation) • 1 mM NADP (FUJIFILM Wako Pure Chemical Corporation) • 5 U/mL G6PDH II (Glucose-6-phosphate dehydrogenase: T-51, ASAHI KASEI PHARMA CORPORATION) • 5 U/mL ADP-HK II (ADP dependent hexokinase: T-92, ASAHI KASEI PHARMA CORPORATION) • 0.1% TN-100 (ADEKA Corporation)
[Composition of BKII Diluent] • 50 mM Tris-HCl (pH 7.5) (Sigma-Aldrich Co. LLC.) • 10 mM KCl (FUJIFILM Wako Pure Chemical Corporation)
[Composition of BKIII Diluent] • 50 mM Potassium phosphate buffer (pH 7.0) (Sigma-Aldrich Co. LLC.) • 0.1% TN-100 (ADEKA Corporation)
[Measurement Parameters of Automatic Analyzer] • Analysis method: Rate-A • Measurement wavelength (secondary/primary): 700 nm/340 nm • Reaction time: 5 minutes • Photometry point: 11 to 16 • Sample volume: 3 μL • First reagent amount: 150 μL […]
The sample was dispensed into a cuvette, then the first reagent was added and stirred. […] The cuvette was irradiated with light and the change in absorption at 340 nm was measured between about 200 seconds and about 296 seconds after the addition of the first reagent. […] The activity value (U/mL) of butyrate kinase was calculated from the following formula by defining the amount of enzyme that phosphorylates 1 μmol of butyric acid per minute as 1 U and using the value of the absorbance change per minute (ΔmAbs/min) calculated from the absorbance at the photometry point and the millimole extinction coefficient (c=6.3) of […] at 340 nm. […]
The specific activity (U/mg) is the activity value per 1 mg of enzyme. The protein (enzyme) concentrations of the BKII solution obtained in Reference Example 1 and the BKIII solution obtained in Reference Example 3 were quantified by the Bradford method, and the specific activities of BKII and BKIII with respect to butyric acid under the measurement conditions of Example 1 were calculated. […]
The Km and Vmax of BKII and BKIII with respect to butyric acid under the measurement conditions of Example 1 were determined by Lineweaver-Burk plot.

Row | Molecule | substrate specificity, relative value when the activity value with respect to butyric acid is 100 [1] [%] | substrate specificity, relative value when the activity value with respect to butyric acid is 100 [2] [%] | also measured
1 | CC(O)C(=O)O (stereo not shown) [Lactic acid] | 0 | 0 | –
2 | CCCCCC(=O)O [Caproic acid] | 22 | 56 | –
3 | CC(C)CC(=O)O [Isovaleric acid] | 133 | 148 | –
4 | CCCCC(=O)O [Valeric acid] | 161 | 138 | –
5 | O=C(O)CCC(=O)O [Succinic acid] | 2 | 0 | –
6 | CCCCCCCC(=O)O [Octanoic acid] | 0 | 0 | –
7 | CCC(=O)O [Propionic acid] | 62 | 41 | –
8 | B1 | – | – | thermal stability (remaining activity) ([3]; after treatment at 37° C. for 30 minutes, 10 mM Tris-HCl pH 7.5, 100 mM KCl): ≥ 50%; activity value of butyrate kinase ([4]; enzyme solution, 37° C., Tris-HCl pH 7.5): about 340 U/mL; Km ([4]; Lineweaver-Burk plot): 4.2 mM; Vmax ([4]; Lineweaver-Burk plot): 1100 U/mg; specific activity ([4]; measurement conditions of Example 1, protein by Bradford method): about 337 U/mg
9 | B2 | – | – | remaining activity [3]: 48.7%
10 | B3 | – | – | remaining activity [3]: 60.5%
11 | B4 | – | – | remaining activity [3]: 14.7%
